{"source": "patent US7495025B2", "about": "“Spiro-1,2,4-trioxanes” (Council of Scientific and Industrial Research, priority 2005, dated 2009)", "system": "multi-drug resistant strain of Plasmodium yoelii Nigeriensis", "test": "Antimalarial activity against multi-drug resistant P. yoelii in Swiss mice (4-day treatment, observation till day 28)", "format": "in vivo", "details": "for inhibition in vivo at 24 mg/kg/day / inhibition in vivo at 48 mg/kg/day / responders at 24 mg/kg/day / responders at 48 mg/kg/day / inhibition in vivo at 96 mg/kg/day / responders at 96 mg/kg/day: Plasmodium yoelii; for inhibition in vivo at 24 mg/kg/day / inhibition in vivo at 48 mg/kg/day / inhibition in vivo at 96 mg/kg/day: 96 h, read-out: % Suppression on Day 4; for responders at 24 mg/kg/day / responders at 48 mg/kg/day / responders at 96 mg/kg/day: 672 h", "experimental": "The antimalarial activity of the test compounds was evaluated in rodent using multi-drug resistant strain of Plasmodium yoelii Nigeriensis in Swiss mice.\nRandom bred Swiss mice of either sex (20±2 gm) were inoculated intraperitoneally with 1×10^5 P. yoelii (MDR) parasites on day zero. The treatments with test compounds were administered to group of 5 mice each at different dose levels ranging between 24-96 mg/kg/day. The treatment was administered in groundnut oil intramuscularly and orally for 4 consecutive days (day 0-3). Blood smears from experimental mice were observed on day 4 and 7, day 10 and thereafter at regular intervals till day 28 or death of the animal. The parasitaemia level on day 4 was compared with vehicle control group and the percent suppression of parasitaemia in treated groups were calculated.\nThe dose at which no parasitaemia develop during the observation period has been reported as the curative dose.", "key": {"[1]": {"details": "po, read-out: Mice alive on day-28"}, "[2]": {"details": "Swiss mice, 96 mg/kg/day, i.m., in groundnut oil, days 0-3"}, "[3]": {"details": "Swiss mice, 96 mg/kg/day, oral, in groundnut oil, days 0-3"}, "[4]": {"details": "Swiss mice, 96 mg/kg/day, oral, in groundnut oil, days 0-3, read-out: Mice alive on day-28 (converted)"}, "[5]": {"details": "im, Swiss mice, 96 mg/kg/day, i.m., in groundnut oil, days 0-3"}, "[6]": {"details": "im, Swiss mice, 96 mg/kg/day, i.m., in groundnut oil, days 0-3, read-out: Mice alive on day-28 (converted)"}, "[7]": {"details": "Swiss mice, 48 mg/kg/day, oral, in groundnut oil, days 0-3"}, "[8]": {"details": "Swiss mice, 48 mg/kg/day, oral, in groundnut oil, days 0-3, read-out: Mice alive on day-28 (converted)"}, "[9]": {"details": "Swiss mice, 24 mg/kg/day, oral, in groundnut oil, days 0-3"}, "[10]": {"details": "Swiss mice, 24 mg/kg/day, oral, in groundnut oil, days 0-3, read-out: Mice alive on day-28 (converted)"}, "[11]": {"details": "im, Swiss mice, 48 mg/kg/day, i.m., in groundnut oil, days 0-3"}, "[12]": {"details": "im, Swiss mice, 48 mg/kg/day, i.m., in groundnut oil, days 0-3, read-out: Mice alive on day-28 (converted)"}}, "note": "Read-outs that look alike come from different tables or passages of the source.", "data": [{"smiles": "CCN(CC)CCCC(C)Nc1ccnc2cc(Cl)ccc12", "note": "(centres unmarked) [Chloroquine, reference compound]", "values": [{"measurement": "inhibition in vivo at 24 mg/kg/day", "setting": "po", "result": 100, "unit": "%"}, {"measurement": "inhibition in vivo at 48 mg/kg/day", "setting": "po", "result": 100, "unit": "%"}, {"measurement": "responders at 24 mg/kg/day", "setting": "[1]", "result": 0, "unit": "%"}, {"measurement": "responders at 48 mg/kg/day", "setting": "[1]", "result": 40, "unit": "%"}]}, {"smiles": "C=C(c1ccccc1)C1COC2(CCC(=O)CC2)OO1", "note": "(centres unmarked) [Compound 3a, 3-(1-Phenyl-vinyl)-1,2,5-trioxaspiro[5.5]undec-9-one]", "values": [{"measurement": "% Suppression on Day 4", "setting": "[2]", "result": 99, "unit": "%"}, {"measurement": "Mice alive on day-28", "setting": "[2]", "result": "0/5"}]}, {"smiles": "C=C(c1ccc(-c2ccccc2)cc1)C1COC2(CCC(=O)CC2)OO1", "note": "(centres unmarked) [Compound 3b, 3-(1-Biphenyl-4yl-vinyl)-1,2,5-trioxaspiro[5.5]undec-9-one]", "values": [{"measurement": "% Suppression on Day 4", "setting": "[2]", "result": 100, "unit": "%"}, {"measurement": "Mice alive on day-28", "setting": "[2]", "result": "1/5"}]}, {"smiles": "C=C(c1ccc(Cl)cc1)C1COC2(CCC(=O)CC2)OO1", "note": "(centres unmarked) [Compound 3c, 3-[1-(4-Chloro-phenyl)-vinyl]-1,2,5-trioxa-spiro[5.5]undecan-9-one]", "values": [{"measurement": "inhibition in vivo at 96 mg/kg/day", "setting": "[3]", "result": 100, "unit": "%"}, {"measurement": "responders at 96 mg/kg/day", "setting": "[4]", "result": 0, "unit": "%"}]}, {"smiles": "C=C(c1ccc(C2CCCCC2)cc1)C1COC2(CCC(=O)CC2)OO1", "note": "(centres unmarked) [Compound 3f, 3-[1-(4-Cyclohexyl-phenyl)-vinyl]-1,2,5-trioxa-spiro[5.5]undecan-9-one]", "values": [{"measurement": "inhibition in vivo at 96 mg/kg/day", "setting": "[3]", "result": 100, "unit": "%"}, {"measurement": "responders at 96 mg/kg/day", "setting": "[4]", "result": 60, "unit": "%"}, {"measurement": "inhibition in vivo at 96 mg/kg/day", "setting": "[5]", "result": 100, "unit": "%"}, {"measurement": "responders at 96 mg/kg/day", "setting": "[6]", "result": 40, "unit": "%"}]}, {"smiles": "C=C(c1cccc2ccccc12)C1COC2(CCC(=O)CC2)OO1", "note": "(centres unmarked) [Compound 3g, 3-(1-Naphthalen-1-yl-vinyl)-1,2,5-trioxa-spiro [5.5]undecan-9-one]", "values": [{"measurement": "inhibition in vivo at 96 mg/kg/day", "setting": "[3]", "result": 100, "unit": "%"}, {"measurement": "responders at 96 mg/kg/day", "setting": "[4]", "result": 20, "unit": "%"}]}, {"smiles": "C=C(c1ccccc1)C1COC2(CCC(=CC(=O)OCC)CC2)OO1", "note": "(centres unmarked) [Compound 4aa, [3-(1-Phenyl-vinyl)-1,2,5-trioxa-spiro[5.5]undec-9-ylidene]-acetic acid ethyl ester]", "values": [{"measurement": "inhibition in vivo at 48 mg/kg/day", "setting": "[7]", "result": 100, "unit": "%"}, {"measurement": "responders at 48 mg/kg/day", "setting": "[8]", "result": 100, "unit": "%"}, {"measurement": "inhibition in vivo at 96 mg/kg/day", "setting": "[5]", "result": 99, "unit": "%"}, {"measurement": "responders at 96 mg/kg/day", "setting": "[6]", "result": 40, "unit": "%"}]}, {"smiles": "C=C(c1ccc(-c2ccccc2)cc1)C1COC2(CCC(=CC(=O)OCC)CC2)OO1", "note": "(centres unmarked) [Compound 4ab, [3-(1-Biphenyl-4-yl-vinyl)-1,2,5-trioxa-spiro[5.5]undec-9-ylidene]-acetic acid ethyl ester]", "values": [{"measurement": "inhibition in vivo at 96 mg/kg/day", "setting": "[3]", "result": 100, "unit": "%"}, {"measurement": "responders at 96 mg/kg/day", "setting": "[4]", "result": 100, "unit": "%"}]}, {"smiles": "C=C(c1ccc(Cl)cc1)C1COC2(CCC(=CC(=O)OCC)CC2)OO1", "note": "(centres unmarked) [Compound 4ac, {3-[1-(4-Chloro-phenyl)-vinyl]-1,2,5-trioxa-spiro[5.5]undec-9-ylidene}-acetic acid ethyl ester]", "values": [{"measurement": "inhibition in vivo at 24 mg/kg/day", "setting": "[9]", "result": 100, "unit": "%"}, {"measurement": "inhibition in vivo at 48 mg/kg/day", "setting": "[7]", "result": 100, "unit": "%"}, {"measurement": "responders at 24 mg/kg/day", "setting": "[10]", "result": 60, "unit": "%"}, {"measurement": "responders at 48 mg/kg/day", "setting": "[8]", "result": 100, "unit": "%"}, {"measurement": "inhibition in vivo at 48 mg/kg/day", "setting": "[11]", "result": 100, "unit": "%"}, {"measurement": "inhibition in vivo at 96 mg/kg/day", "setting": "[5]", "result": 100, "unit": "%"}, {"measurement": "responders at 48 mg/kg/day", "setting": "[12]", "result": 60, "unit": "%"}, {"measurement": "responders at 96 mg/kg/day", "setting": "[6]", "result": 100, "unit": "%"}]}, {"smiles": "C=C(c1ccc(OC)cc1)C1COC2(CCC(=CC(=O)OCC)CC2)OO1", "note": "(centres unmarked) [Compound 4ad, {3-[1-(4-Methoxy-phenyl)-vinyl]-1,2,5-trioxa-spiro[5.5]undec-9-ylidene}-acetic acid ethyl ester]", "values": [{"measurement": "inhibition in vivo at 96 mg/kg/day", "setting": "[3]", "result": 100, "unit": "%"}, {"measurement": "responders at 96 mg/kg/day", "setting": "[4]", "result": 100, "unit": "%"}, {"measurement": "inhibition in vivo at 96 mg/kg/day", "setting": "[5]", "result": 100, "unit": "%"}, {"measurement": "responders at 96 mg/kg/day", "setting": "[6]", "result": 40, "unit": "%"}]}, {"smiles": "C=C(c1ccc(C)cc1)C1COC2(CCC(=CC(=O)OCC)CC2)OO1", "note": "(centres unmarked) [Compound 4ae, [3-(1-p-Tolyl-vinyl)-1,2,5-trioxa-spiro[5.5]undec-9-ylidene]-acetic acid ethyl ester]", "values": [{"measurement": "inhibition in vivo at 24 mg/kg/day", "setting": "[9]", "result": 100, "unit": "%"}, {"measurement": "inhibition in vivo at 48 mg/kg/day", "setting": "[7]", "result": 100, "unit": "%"}, {"measurement": "responders at 24 mg/kg/day", "setting": "[10]", "result": 60, "unit": "%"}, {"measurement": "responders at 48 mg/kg/day", "setting": "[8]", "result": 100, "unit": "%"}, {"measurement": "inhibition in vivo at 48 mg/kg/day", "setting": "[11]", "result": 100, "unit": "%"}, {"measurement": "inhibition in vivo at 96 mg/kg/day", "setting": "[5]", "result": 100, "unit": "%"}, {"measurement": "responders at 48 mg/kg/day", "setting": "[12]", "result": 40, "unit": "%"}, {"measurement": "responders at 96 mg/kg/day", "setting": "[6]", "result": 100, "unit": "%"}]}, {"smiles": "C=C(c1ccc(C2CCCCC2)cc1)C1COC2(CCC(=CC(=O)OCC)CC2)OO1", "note": "(centres unmarked) [Compound 4af, {3-[1-(4-Cyclohexyl-phenyl)-vinyl]-1,2,5-trioxa-spiro[5.5]undec-9-ylidene}-acetic acid ethyl ester]", "values": [{"measurement": "inhibition in vivo at 48 mg/kg/day", "setting": "[7]", "result": 100, "unit": "%"}, {"measurement": "inhibition in vivo at 96 mg/kg/day", "setting": "[3]", "result": 100, "unit": "%"}, {"measurement": "responders at 48 mg/kg/day", "setting": "[8]", "result": 60, "unit": "%"}, {"measurement": "responders at 96 mg/kg/day", "setting": "[4]", "result": 80, "unit": "%"}]}, {"smiles": "C=C(c1cccc2ccccc12)C1COC2(CCC(=CC(=O)OCC)CC2)OO1", "note": "(centres unmarked) [Compound 4ag, [3-(1-Naphthalen-1-yl-vinyl)-1,2,5-trioxa-spiro[5.5]undec-9-ylidene]-acetic acid ethyl ester]", "values": [{"measurement": "inhibition in vivo at 96 mg/kg/day", "setting": "[5]", "result": 100, "unit": "%"}, {"measurement": "responders at 96 mg/kg/day", "setting": "[6]", "result": 100, "unit": "%"}]}, {"smiles": "C=C(c1ccc2ccccc2c1)C1COC2(CCC(=CC(=O)OCC)CC2)OO1", "note": "(centres unmarked) [Compound 4ah, [3-(1-Naphthalen-2-yl-vinyl)-1,2,5-trioxa-spiro[5.5]undec-9-ylidene]-acetic acid ethyl ester]", "values": [{"measurement": "inhibition in vivo at 24 mg/kg/day", "setting": "[9]", "result": 100, "unit": "%"}, {"measurement": "inhibition in vivo at 48 mg/kg/day", "setting": "[7]", "result": 100, "unit": "%"}, {"measurement": "responders at 24 mg/kg/day", "setting": "[10]", "result": 20, "unit": "%"}, {"measurement": "responders at 48 mg/kg/day", "setting": "[8]", "result": 100, "unit": "%"}, {"measurement": "inhibition in vivo at 96 mg/kg/day", "setting": "[5]", "result": 88, "unit": "%"}, {"measurement": "responders at 96 mg/kg/day", "setting": "[6]", "result": 40, "unit": "%"}]}, {"smiles": "C=C(c1ccc(-c2ccccc2)cc1)C1COC2(CCC(=C(C)C(=O)OCC)CC2)OO1", "note": "(centres unmarked) [Compound 4bb, 2-[3-(1-Biphenyl-4-yl-vinyl)-1,2,5-trioxa-spiro [5.5]undec-9-ylidene]-propionic acid ethyl ester]", "values": [{"measurement": "inhibition in vivo at 96 mg/kg/day", "setting": "[3]", "result": 100, "unit": "%"}, {"measurement": "responders at 96 mg/kg/day", "setting": "[4]", "result": 60, "unit": "%"}]}, {"smiles": "C=C(c1ccc(C2CCCCC2)cc1)C1COC2(CCC(=C(C)C(=O)OCC)CC2)OO1", "note": "(centres unmarked) [Compound 4bf, 2-{3-[1-(4-Cyclohexyl-phenyl)-vinyl]-1,2,5-trioxa-spiro[5.5]undec-9-ylidene}-propionic acid ethyl ester]", "values": [{"measurement": "inhibition in vivo at 96 mg/kg/day", "setting": "[3]", "result": 100, "unit": "%"}, {"measurement": "responders at 96 mg/kg/day", "setting": "[4]", "result": 40, "unit": "%"}]}, {"smiles": "CCO[C@H]1O[C@@H]2O[C@@]3(C)CC[C@H]4[C@H](C)CC[C@@H]([C@H]1C)[C@@]24OO3", "note": "[β-Arteether, reference compound]", "values": [{"measurement": "% Suppression on Day 4", "setting": "[9]", "result": 100, "unit": "%"}, {"measurement": "Mice alive on day-28", "setting": "[9]", "result": "1/5"}, {"measurement": "% Suppression on Day 4", "setting": "[7]", "result": 100, "unit": "%"}, {"measurement": "Mice alive on day-28", "setting": "[7]", "result": "5/5"}]}]}
